# Values of other authors as cited in patent US8911777B2, “Pharmaceutical composition of tacrolimus” (Sigmoid Pharma Limited, priority 2007, dated 2014).
# Legend:
# [1] = whole blood; Masuda et al. 2006
# [2] = after oral administration of conventional IR tablets
smiles,measurement,setting,value
C=CC[C@@H]1/C=C(\C)C[C@H](C)C[C@H](OC)[C@H]2O[C@@](O)(C(=O)C(=O)N3CCCC[C@H]3C(=O)O[C@H](/C(C)=C/[C@@H]3CC[C@@H](O)[C@H](OC)C3)[C@H](C)[C@@H](O)CC1=O)[C@H](C)C[C@@H]2OC [Tacrolimus],blood concentration at which adverse effects occurred,[1],higher than 15 ng/ml
same,persistence of drug effects,[2],8 to 12 h
